# Experimental data published in article PMC12321279, “Novel 4,5‐Dihydrothiazole‐Phenylpiperazine Derivatives: Synthesis, Docking Studies and Pharmacological Evaluation as Serotonergic Agents” (Chemmedchem, 2025).
# Assays:
# [1] = test system: mice; assay: Elevated plus maze test (EPM); type: in vivo
# Procedure: The tests were performed on male white mice of the Albino Swiss strain, whose weight was between 24 and 30 g in Experimental Medicine Center, Medical University of Lublin, Poland. The animals were housed (four/five per cage). Before conducting the experimental tests, the animals were subjected to an adaptation that lasted seven days. This consisted of keeping them in a room with relatively constant conditions: a temperature of 22 ± 1 °C, a humidity of 55 ± 5% and lighting that mimicked the natural day and night rhythm (12 h/12 h). Constant access to food and water was provided. Standard feed—LSM Motycz pelleted feed—and tap water were used. Mice were randomly allocated to study groups. Each group was represented by 8–10 animals, depending on the research schedule. The experiments were performed according to the procedures set out in the regulations for animal experiments: National Institute of Health Guidelines for the Care and Use of Laboratory Animals (8th edition) and to the European Community Council Directive for the Care and Use of Laboratory Animals of 22 September 2010 (2010/63/EU). The study was approved by the Local Ethical Committee in Lublin (number of ethical approvals: 27/2023). Tested compounds: FG‐1, FG‐4, FG‐5, FG‐6, FG‐7, FG‐8, and FG‐18 were finely ground in mortars with the addition of the emulsifier Tween‐80. A suspension was obtained, which was then diluted with aqueous solution of 0.5% methylcellulose (tylose). The mixture was then administered intraperitoneally (i.p.) to the animals 60 min before the start of the experiments. Animals in the control groups received a 0.5% tylose solution. All substances were administered via the same route of administration in appropriate dose and volume of 0.1 mL per 10 g of animal body weight. Prior to the administration of the drug, the animals were weighed, during the interval between tests, they were provided with food, water, and constant living conditions. The EPM test is performed using an apparatus developed by Lister;^[ [44] ^] it consists of two open arms (30 × 5 cm) and two enclosed arms (30 × 5 × 15 cm) and a central platform (5 × 5 cm) it is placed at a height of 45 cm from the floor. The labyrinth was made of Plexiglas. The experiments were conducted in a darkened and quiet room. The central square of the maze was evenly illuminated with a dull red light. In the test, the mouse is observed for 5 min, and the number of entries into the open and closed arms and the time spent in them are recorded. The person carrying out the experiment remains constantly in the same place. Entering an individual arm is considered when the mouse has placed all four limbs outside the central square. The experiment measures: 1) the time spent by the mouse into the open arms of the maze, expressed as a percentage of the total exploration time, 2) the number of entries into the open arms of the maze, expressed as a percentage of the total number of entrances to both types of arms, and 3) the total number of entries into all arms of the maze—as a locomotor activity of the animals. If the mouse spends more time in the open arms than in the closed arms, this indicates an anxiolytic effect of the compounds tested. Exposed arms pose a risk of falling and therefore act as a mild stressor. Anxious mice are more likely to switch between open and enclosed arms and spend more time in enclosed arms than less anxious mice.^[ [11], [17], [44], [45] ^]
# [2] = target: 5‐HT2A receptor (Rattus norvegicus, UniProt P14842); assay: Inhibition of 5‐HT‐evoked contractions in isolated rat ileum; design: segments (1–1.5 cm) of ileum were removed, flushed of luminal contents, and placed in Krebs solution; from tissue; host or cells: isolated rat (Sprague-Dawley) ileum segments; conditions: 5‐HT 10^−5 M, compounds 10^−8–10^−5 M; for Emax: read-out: EMAX, maximal inhibitory effect on 5‐HT‐induced contractions in the rat ileum; for IC50: IC50, inhibition of 5‐HT‐induced contractions in the rat ileum, contact time 10 min
# 5‐HT2A receptor, sequence (P14842 whole entry): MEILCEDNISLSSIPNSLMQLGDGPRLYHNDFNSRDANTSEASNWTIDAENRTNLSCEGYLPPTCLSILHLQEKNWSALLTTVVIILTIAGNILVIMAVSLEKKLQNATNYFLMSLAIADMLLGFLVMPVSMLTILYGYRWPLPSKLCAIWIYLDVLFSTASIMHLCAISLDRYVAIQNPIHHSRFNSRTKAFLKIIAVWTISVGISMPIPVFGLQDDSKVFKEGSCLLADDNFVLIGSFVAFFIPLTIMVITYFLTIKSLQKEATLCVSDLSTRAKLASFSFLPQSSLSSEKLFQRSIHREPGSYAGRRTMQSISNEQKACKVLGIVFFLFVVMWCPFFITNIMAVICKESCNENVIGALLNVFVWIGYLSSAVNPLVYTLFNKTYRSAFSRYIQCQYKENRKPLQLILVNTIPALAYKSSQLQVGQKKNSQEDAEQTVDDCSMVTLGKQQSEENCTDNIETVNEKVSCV
# Procedure: Male rats (Sprague‐Dawley, 160–200 g; Charles River Laboratories; Calco, Italy) were manipulated and cared for in strict compliance with the principles of laboratory animal care. Experimental procedures were conducted in conformity with Italian (D.L. 26/2014) and European (directive 2010/63/EU) regulations on the protection of animals used for scientific purposes and approved by the Italian Ministry. Animal housing complied with recent pharmacological guidance.^[ [40] ^] All animals weighing 160–200 g were used after a 1‐week acclimation period (temperature 23 ± 2 °C; humidity 60%, free access to water and standard food).
# The segments were prepared as previously described:^[ [41] ^] the segments were set up in such a way as to record contractions mainly from the longitudinal axis, in an organ bath containing 20 mL of Krebs solution, bubbled with 95% O2 and 5% CO2 and maintained at 37 °C. The tissues were connected to an isotonic transducer (load: 0.5 g), connected to Power Lab system (Ugo Basile, Comerio, Italy). Ileal segments were equilibrated for 60 min^[ [16] ^] followed by three repeated additions of submaximal concentration of 5‐HT (10^−5 M) in order to record stable control contractions. […] The contact time for each concentration was 10 min. The compounds were dissolved in DMSO. […] Results are expressed as mean (SEM). […] The IC50 and Emax values were calculated with the aid of a computer program (GraphPad Prism 5).
# [3] = 15 mg kg^−1 i.p. 60 min before test
# [4] = 30 mg kg^−1 i.p. 60 min before test
smiles,measurement,setting,value
"O=C(NCCCN1CCN(c2ccc(C3=NCCS3)cc2)CC1)c1ccncc1 [FG‐6, N‐(3‐(4‐(4‐(4,5‐dihydrothiazol‐2‐yl) phenyl) piperazin‐1‐yl) propyl) isonicotinamide]","EPM, percentage of the open arm entries",[1]; 7.5 mg kg^−1 i.p. 60 min before test,increase in the percentage of open arm entries
same,"EPM, percentage of the open arm entries",[1]; [3],increase in the percentage of open arm entries
same,"EPM, percentage of time spent in open arms",[1]; [3],significant increase in time spent in open arms
"O=C(NCCCN1CCN(c2ccc(C3=NCCS3)cc2)CC1)C1CC2C=CC1C2 (stereo not drawn) [FG‐18, Endo‐ N‐(3‐(4‐(4‐(4,5‐dihydrothiazol‐2‐yl)phenyl)piperazin‐1‐yl)propyl) bicyclo[2.2.1]hept‐5‐ene‐2‐carboxamide]","EPM, percentage of time spent in open arms",[1]; [4],significant increase in time spent in open arms
same,Emax,[2],32.8%
same,IC50,[2],2970 nM
"O=C(NCCCN1CCN(c2ccccc2C2=NCCS2)CC1)c1ccccn1 [FG‐1, N‐(3‐(4‐(2‐(4,5‐dihydrothiazol‐2‐yl) phenyl) piperazin‐1‐yl) propyl) picolinamide]","EPM, percentage of the open arm entries",[1]; [4],increase in the percentage of open arm entries
same,"EPM, percentage of time spent in open arms",[1]; [4],significant increase in time spent in open arms
"O=C(NCCCN1CCN(c2cccc(C3=NCCS3)c2)CC1)c1ccccn1 [FG‐2, N‐(3‐(4‐(3‐(4,5‐dihydrothiazol‐2‐yl) phenyl) piperazin‐1‐yl) propyl) picolinamide]",Emax,[2],25.4%
same,IC50,[2],6120 nM
"O=C1C2C3C=CC(C3)C2C(=O)N1OCCCN1CCN(c2cccc(C3=NCCS3)c2)CC1 (stereo not shown) [FG‐8, 2‐(3‐(4‐(3‐(4,5‐dihydrothiazol‐2‐yl) phenyl) piperazin‐1‐yl) propoxy)‐3a,4,7,7a‐tetrahydro‐1H‐4,7‐methanoisoindole‐1,3(2H)‐dione]",Emax,[2],21.4%
same,IC50,[2],155 nM
"O=C1C2C3C=CC(C3)C2C(=O)N1OCCCN1CCN(c2ccccc2C2=NCCS2)CC1 (stereo not shown) [FG‐7, 2‐(3‐(4‐(2‐(4,5‐dihydrothiazol‐2‐yl) phenyl) piperazin‐1‐yl) propoxy)‐3a,4,7,7a‐tetrahydro‐1 H‐4,7‐methanoisoindole‐1,3(2 H)‐dione]","EPM, percentage of time spent in open arms",[1]; [3],significant increase in time spent in open arms
same,"EPM, percentage of the open arm entries",[1]; [4],increase in the percentage of open arm entries
same,Emax,[2],24.5%
same,IC50,[2],1790 nM
